Laboratory results: paper PMC4476799, “Englerin A Agonizes the TRPC4/C5 Cation Channels to Inhibit Tumor Cell Line Proliferation” (PLoS ONE, 2015)
Like-named read-outs stand apart in the source and are kept apart here.

System: cancer cell lines from the cancer cell line encyclopedia (CCLE)
Assay: Cell line profiling (CLiP) proliferation experiment
Assay type: cell-based
Conditions: Homo sapiens; for IC50: read-out: Crossing Point; for EC50: read-out: Inflection Point
Description: Compound profiling experiment and data analysis was performed as previously described. Data was imported and plotted using the Tibco Spotfire DXP application. Lines were categorized as sensitive, intermediate and refractory as follows: Amax<-40 & Inflection Point <2 ~ Sensitive, Amax>-20 & Inflection Point >10 ~ Refractory, all else were called Intermediate. Cancer Cell line HG-U133 Plus 2 data was processed and normalized as described. […] Five sets of refractory cell lines were generated from the pool of refractory cell lines trying to match the lineage composition of the set of sensitive cell lines. The limma package was used as previously described to perform the statistical comparison.

[1] = NCI-H1666, cell line NCI-H1666 (lung)
[2] = NCI-H1703, cell line NCI-H1703 (lung)
[3] = NCI-H1734, cell line NCI-H1734 (lung)
[4] = NCI-H1793, NCI-H1793, lung, adenocarcinoma
[5] = NCI-H2122, NCI-H2122, lung, adenocarcinoma
[6] = NCI-H2405, NCI-H2405, lung, adenocarcinoma
[7] = NCI-H3255, NCI-H3255, lung, adenocarcinoma
[8] = NUGC-4, NUGC-4, stomach, signet_ring_adenocarcinoma
[9] = OC-314, OC 314, ovary, serous_carcinoma
[10] = OCI-LY19, OCI-LY-19, haematopoietic_and_lymphoid_tissue, diffuse_large_B_cell_lymphoma
[11] = P12-Ichikawa, P12-ICHIKAWA cells
[12] = P12-Ichikawa, cell line P12-ICHIKAWA

Question: For `CC(C)[C@@]12C[C@@H](O)[C@@](C)(O1)[C@@H]1CC[C@@H](C)[C@H]1[C@@H]2OC(=O)/C=C/c1ccccc1` [Englerin B], which IC50 [1] is on record?
Answer: 22.4 µM

Question: What about the EC50 [1] of the same molecule?
Answer: 22.8 µM

Question: And the IC50 (NCI-H1693, cell line NCI-H1693 (lung))?
Answer: > 30 µM

Question: And the IC50 (NCI-H1693, cell line NCI-H1693)?
Answer: > 30 µM

Question: And the IC50 [2]?
Answer: 14.9 µM

Question: What about the EC50 [2] of the same molecule?
Answer: 23.1 µM

Question: And the IC50 [3]?
Answer: 19.6 µM

Question: What about the EC50 [3] of the same molecule?
Answer: 19.6 µM

Question: What about the IC50 (NCI-H1792, NCI-H1792, lung, adenocarcinoma) of the same molecule?
Answer: 24.9 µM

Question: And the IC50 (NCI-H1792, cell line NCI-H1792 (lung, adenocarcinoma))?
Answer: 24.9 µM

Question: And the IC50 [4]?
Answer: > 30 µM

Question: And the EC50 [4]?
Answer: 22.5 µM

Question: And the IC50 (NCI-H1793, cell line NCI-H1793)?
Answer: > 30 µM

Question: And the IC50 (NCI-H1944, NCI-H1944, lung, adenocarcinoma)?
Answer: 15.8 µM

Question: And the IC50 (NCI-H1944, cell line NCI-H1944)?
Answer: 15.8 µM

Question: And the IC50 (NCI-H1975, NCI-H1975, lung, adenocarcinoma)?
Answer: > 30 µM

Question: And the IC50 (NCI-H1975, NCI-H1975 cells)?
Answer: > 30 µM

Question: And the IC50 [5]?
Answer: > 30 µM

Question: What about the EC50 [5] of the same molecule?
Answer: 10.6 µM

Question: What about the IC50 (NCI-H2122, cell line NCI-H2122) of the same molecule?
Answer: > 30 µM

Question: What about the IC50 (NCI-H2126, NCI-H2126, lung, adenocarcinoma) of the same molecule?
Answer: > 30 µM

Question: And the IC50 (NCI-H2126, NCI-H2126 cells)?
Answer: > 30 µM

Question: And the IC50 (NCI-H2170, NCI-H2170, lung, squamous_cell_carcinoma)?
Answer: > 30 µM

Question: What about the IC50 (NCI-H2170, cell line NCI-H2170) of the same molecule?
Answer: > 30 µM

Question: What about the IC50 [6] of the same molecule?
Answer: > 30 µM

Question: And the EC50 [6]?
Answer: 14.6 µM

Question: What about the IC50 (NCI-H2405, cell line NCI-H2405) of the same molecule?
Answer: > 30 µM

Question: And the IC50 (NCI-H2452, NCI-H2452, pleura, NS)?
Answer: > 30 µM

Question: What about the IC50 (NCI-H2452, cell line NCI-H2452) of the same molecule?
Answer: > 30 µM

Question: What about the IC50 [7] of the same molecule?
Answer: 27 µM

Question: What about the EC50 [7] of the same molecule?
Answer: 27 µM

Question: And the IC50 (NCI-H3255, NCI-H3255 cells)?
Answer: 27 µM

Question: What about the EC50 (NCI-H3255, NCI-H3255 cells) of the same molecule?
Answer: 27 µM

Question: And the IC50 (NUGC-3, NUGC-3, stomach, NS)?
Answer: > 30 µM

Question: And the IC50 (NUGC-3, NUGC-3 cells)?
Answer: > 30 µM

Question: And the IC50 [8]?
Answer: 22 µM

Question: What about the EC50 [8] of the same molecule?
Answer: 15.9 µM

Question: What about the EC50 (NUGC-4, NUGC-4 cells) of the same molecule?
Answer: 15.9 µM

Question: What about the IC50 (OAW-42, OAW42, ovary, adenocarcinoma) of the same molecule?
Answer: > 30 µM

Question: What about the IC50 (OAW-42, OAW42 cells) of the same molecule?
Answer: > 30 µM

Question: And the IC50 [9]?
Answer: > 30 µM

Question: And the EC50 [9]?
Answer: 14.9 µM

Question: And the IC50 (OC-314, OC 314 cells)?
Answer: > 30 µM

Question: What about the EC50 (OC-314, OC 314 cells) of the same molecule?
Answer: 14.9 µM

Question: What about the IC50 (OCI-AML2, OCI-AML2, haematopoietic_and_lymphoid_tissue, acute_myeloid_leukaemia) of the same molecule?
Answer: 16.1 µM

Question: What about the IC50 (OCI-AML-3, OCI-AML3, haematopoietic_and_lymphoid_tissue, acute_myeloid_leukaemia) of the same molecule?
Answer: 18.2 µM

Question: And the IC50 [10]?
Answer: 14.2 µM

Question: What about the EC50 [10] of the same molecule?
Answer: 14.8 µM

Question: What about the EC50 (OCI-LY19, OCI-LY-19 cells) of the same molecule?
Answer: 14.8 µM

Question: And the IC50 (OCI-Ly3, OCI-LY3, haematopoietic_and_lymphoid_tissue, diffuse_large_B_cell_lymphoma)?
Answer: 13.3 µM

Question: What about the IC50 (OE19, OE19, oesophagus, adenocarcinoma) of the same molecule?
Answer: 20.4 µM

Question: What about the IC50 (OS-RC-2, OS-RC-2 cells) of the same molecule?
Answer: > 30 µM

Question: And the EC50 (OS-RC-2, OS-RC-2 cells)?
Answer: 11.5 µM

Question: What about the IC50 (OS-RC-2, cell line OS-RC-2) of the same molecule?
Answer: > 30 µM

Question: And the EC50 (OS-RC-2, cell line OS-RC-2)?
Answer: 11.5 µM

Question: And the IC50 (OV-90, OV-90 cells)?
Answer: > 30 µM

Question: What about the IC50 (OV-90, cell line OV-90) of the same molecule?
Answer: > 30 µM

Question: What about the IC50 (OVCAR-4, cell line OVCAR-4) of the same molecule?
Answer: 29.6 µM

Question: What about the IC50 (OVCAR-8, cell line OVCAR-8) of the same molecule?
Answer: 20.7 µM

Question: What about the EC50 (OVSAHO, OVSAHO cells) of the same molecule?
Answer: 18.1 µM

Question: And the IC50 (OVSAHO, cell line OVSAHO)?
Answer: 23.6 µM

Question: What about the EC50 (OVSAHO, cell line OVSAHO) of the same molecule?
Answer: 18.1 µM

Question: What about the IC50 (P3HR-1, cell line P3HR-1) of the same molecule?
Answer: 25.4 µM

Question: What about the IC50 [11] of the same molecule?
Answer: 19.1 µM

Question: What about the EC50 [11] of the same molecule?
Answer: 19.1 µM

Question: And the IC50 [12]?
Answer: 19.1 µM

Question: What about the EC50 [12] of the same molecule?
Answer: 19.1 µM

Question: And the IC50 (P31-FUJ, cell line P31/FUJ)?
Answer: 19.6 µM

Question: What about the IC50 (PANC-1, cell line PANC-1) of the same molecule?
Answer: 23.8 µM

Question: And the IC50 (PANC-03-27, cell line Panc 03.27)?
Answer: 21.1 µM

Question: And the IC50 (PC-14, cell line PC-14)?
Answer: 21.4 µM

Question: What about the EC50 (PF-382, PF-382 cells) of the same molecule?
Answer: 13.1 µM

Question: And the IC50 (PF-382, cell line PF-382)?
Answer: 16.6 µM

Question: What about the EC50 (PF-382, cell line PF-382) of the same molecule?
Answer: 13.1 µM

Question: And the IC50 (PLC-PRF-5, PLC/PRF/5 (liver))?
Answer: 14.5 µM

Question: And the IC50 (PLC-PRF-5, cell line PLC/PRF/5)?
Answer: 14.5 µM

Question: And the IC50 (PSN1, cell line PSN1)?
Answer: 29.7 µM

Question: What about the IC50 (Panc 02.03, Panc 02.03 cells) of the same molecule?
Answer: > 30 µM

Question: What about the IC50 (Panc 02.03, cell line Panc 02.03) of the same molecule?
Answer: > 30 µM

Question: And the IC50 (Panc 04.03, Panc 04.03 cells)?
Answer: > 30 µM

Question: And the IC50 (Panc 04.03, cell line Panc 04.03)?
Answer: > 30 µM

Question: And the EC50 (Panc1005, Panc 10.05 cells)?
Answer: 10.9 µM

Question: What about the IC50 (Panc1005, cell line Panc 10.05) of the same molecule?
Answer: 13 µM

Question: What about the EC50 (Panc1005, cell line Panc 10.05) of the same molecule?
Answer: 10.9 µM

Question: And the IC50 (RD, RD cells)?
Answer: > 30 µM

Question: What about the IC50 (REH, Reh cells) of the same molecule?
Answer: 21.5 µM

Question: And the EC50 (REH, Reh cells)?
Answer: 21.5 µM

Question: What about the IC50 (RPMI 8402, RPMI-8402 cells) of the same molecule?
Answer: 19.1 µM

Question: What about the IC50 (RPMI 8402, cell line RPMI-8402) of the same molecule?
Answer: 19.1 µM

Question: And the IC50 (RPMI-7951, cell line RPMI-7951)?
Answer: 19.7 µM

Question: And the EC50 (RPMI-7951, cell line RPMI-7951)?
Answer: 13.7 µM

Question: What about the IC50 (RPMI-8226, cell line RPMI 8226) of the same molecule?
Answer: 16.9 µM
